Assay results taken from patent US20100048577A1, “Method for treating benign prostate hyperplasia using resveratrol” (priority 2008, published 2010).

Tests used:
[1] = test system: BPH (prostate weight/body weight indices); test: Cure or prevention of testosterone enanthate induced BPH, fortified diets, prostate weight/body weight index at day 29 (Example 2); format: in vivo; conditions: testosterone enanthate 25 mg i.m. days 1 and 7, diet with 1 g/kg resveratrol or trimethoxystilbene, 625 mg/kg saw palmetto, or finasteride 10 mg s.c. on 5 days
Method: These experiments were designed to determine whether resveratrol and trimethoxystilbene could cure or prevent BPH. Experimental animals received diets that were fortified with one of trans-resveratrol (1 g/kg), trimethoxystilbene (1 g/kg), or saw palmetto (625 mg/kg). An additional group of animals received injections of finasteride fourteen days after the start of the experiment. The animals received one, subcutaneous injection of 10 mg of finasteride in 0.1 ml dimethyl sulfoxide on 5 consecutive days. All animals, except the absolute control group, received injections of testosterone enanthate (25 mg, in 0.1 ml mineral oil). The injections were administered intramuscularly, on days 1 and 7 of the study. The absolute control group received intramuscular injections of 0.1 ml of mineral oil. At day 29, all test animals were weighed, sacrificed and their prostates were dissected free of fat and weighed. Prostate weight/body weight indices were determined for each group.

[2] = test system: PSA; test: PSA expression in prostate tissue of the experimental animals by quantitative PCR (Example 4); format: in vivo; conditions: animals treated as in Example 2
Method: In additional experiments following the details of example 2, supra, levels of PSA expression were tested.
Prostate tissue from the experimental animals was subjected to quantitative PCR, using well known methods. The expression of PSA was compared in untreated, and in resveratrol, and trimethoxystilbene treated animals.

[3] = test system: Normal human prostate endothelial cells (ATCC CRL-11611); test: Gene expression of normal human prostate cells treated or not treated with resveratrol (Example 3); format: cell-based; conditions: resveratrol 50 μM, 48 hours
Method: Normal human prostate endothelial cells were obtained from the ATCC (CRL-11611), and were either treated or not treated with resveratrol, at 50 μM, for 48 hours. Gene expression of the cells was compared, via standard methods.

[4] = test system: induced BPH (prostate weight/body weight ratio); test: Testosterone enanthate induced BPH in rats, prostate weight after 29 days of treatment (Example 1); format: in vivo; conditions: Sprague Dawley rats, finasteride 10 mg s.c., resveratrol 1 g/kg in diet, saw palmetto 625 mg/kg in diet
Method: Sexually mature Sprague Dawley rats were given two, intramuscular injections of testosterone enanthate, at 25 mg. This induced BPH.
Animals were then divided into different groups. A first group of 5 animals received finasteride, via subcutaneous injection at a dose of 10 mg. A second group received 1 g/kg of body weight of resveratrol, mixed into their diet. A third group received saw palmetto, at 625 mg/kg, mixed into their diet. The control group received the vehicle for the active material only with no active ingredient.
Following 29 days of treatment, all animals were sacrificed. Prostates were dissected free of fat, and weighed.
The injection of the testosterone enanthate increased the prostate weight/body weight ratio by about 2-fold.

**Q.** Which “prostates (weight) compared with controls” value [1] does the source give for `Oc1ccc(/C=C/c2cc(O)cc(O)c2)cc1` [resveratrol, trans-3,5,4′-trihydroxystilbene] here?
**A.** Its value is “indistinguishable from controls”.

**Q.** And the “level of PSA expression relative to that of the controls” value [2]?
**A.** Its value is “about ⅓”.

**Q.** What about the “share of the 376 genes known to be involved with apoptosis showing significant down regulation following treatment” value [3] of the same compound?
**A.** Its value is “about 10%”.

**Q.** What about the “effect on testosterone enanthate induced BPH (increased prostate weight/body weight ratio)” value [4] of the same compound?
**A.** Its value is “reversed the induced BPH”.

**Q.** With `COc1ccc(/C=C/c2cc(OC)cc(OC)c2)cc1` [trimethoxystilbene] as the compound, how does the “prostates (weight) compared with controls” value [1] read?
**A.** The value was “indistinguishable from controls”.

**Q.** And the “level of PSA expression relative to that of the controls” value [2]?
**A.** The value was “about ⅓”.

**Q.** For `CC(C)(C)NC(=O)[C@H]1CC[C@H]2[C@@H]3CC[C@H]4NC(=O)C=C[C@]4(C)[C@H]3CC[C@]12C` [finasteride, Finasteride, reference compound], which “prostates (weight) compared with controls” value [1] is on record?
**A.** The value was “indistinguishable from controls”.

**Q.** And the “effect on testosterone enanthate induced BPH (increased prostate weight/body weight ratio)” value [4]?
**A.** The value was “completely reversed the effect”.
